Source: a melting point compilation (Tetko et al.)

SMILES	melting point
O=C(O)CSc1nncn1-c1ccccc1	207 to 209 °C
N#CCc1nc2cc(C(F)(F)F)ccc2s1	95 to 97 °C
CCc1ccc2c(CCl)cc(=O)oc2c1	138 to 140 °C
CC(C)(C)OC(=O)Nc1cccc(CC(=O)O)c1	97 to 99 °C
Nc1sc2c(c1C(=O)N1CCOCC1)CCCC2	90 to 92 °C
N#Cc1ccc(-c2cccs2)[nH]c1=O	301 to 303 °C
NC(=O)CCNC(=O)c1ccccc1N	197 to 199 °C
Cc1c(CCC(=O)O)cnn1C	139 to 141 °C
CCOC(=O)c1c(N)sc(-c2ccccc2)c1C	94 to 96 °C
CCCCc1ccc(NC(=S)NN)cc1	125 to 127 °C
Cc1cc(C(=O)O)nn1C(C)C1CC1 (stereo not given)	130 to 132 °C
O=C1NC(=O)C2(CCSCC2)N1	265 to 267 °C
NCc1ccc(C(=O)N2CCNC(=O)C2)cc1	143 to 145 °C
CC(NC(=O)c1ccccc1Cl)C(=O)O (stereo not given)	137 to 139 °C
O=C(CCl)c1ccc[nH]1	114 to 116 °C
NC(=O)c1c(NC(=O)CCl)sc2c1CCCC2	236 to 238 °C
Cc1ccc(F)c(N2CCCC(Br)C2=O)c1 (stereo not given)	74 to 76 °C
O=C(O)c1cc2cccc(F)c2o1	242 to 244 °C
Nc1ccc2c(c1)N1CCN=C1S2	201 to 204 °C
NS(=O)(=O)c1ccc(Cl)cc1F	104 to 106 °C
CCOC(=O)c1c(N)sc(C(=O)OC)c1CC(=O)OC	168 to 170 °C
COc1ccc(C(=O)c2ccc(F)cc2)cc1	90 to 92 °C

SMILES	melting point
CC1CCCCC1N1C(=O)C=CC1=O (stereo not given)	40 to 42 °C
COc1ccc(-c2nnc(S)n2N)c(OC)c1	200 to 202 °C
Cc1c(C(=O)O)sc2cccc(F)c12	230 to 232 °C
CCNC(=O)Nc1cccc(F)c1C(=O)O	159 to 161 °C
Clc1c[nH]c2ccccc12	79 to 81 °C
O=C(O)c1nc(=O)[nH][nH]1	202 to 204 °C
O=C(O)c1oc2ccccc2c1CSC1=NCCS1	190 to 192 °C
CC(=O)Oc1ccc(CCl)cc1	29 to 31 °C
COC(=O)c1cccc(C(N)=NO)c1	102 to 104 °C
COC(=O)c1ccc(-c2noc(CC(C)(C)C)n2)cc1	114 to 116 °C
C=CCNC(=O)Nc1ccc(N)cc1	157 to 159 °C
Cc1cc(S(=O)(=O)Cl)cc([N+](=O)[O-])c1C	127 to 129 °C
Cc1ccn2c(C=O)cnc2c1	80 to 82 °C
Nc1ccc(S(=O)(=O)NCc2ccc(Cl)cc2)cc1	174 to 176 °C
O=C(O)c1cc(/C=C/c2ccc(C(F)(F)F)cc2)nc2ccc(Br)cc12	316 to 318 °C
O=C(CCl)NC1CCS(=O)(=O)C1 (stereo not given)	89 to 98 °C
CCCOc1ccc(/C=C/C(=O)O)cc1	179 to 181 °C
CC(C)C(=O)c1ccc2[nH]c(=O)oc2c1	188 to 190 °C
CN1CCN(c2ccc(N)cn2)CC1	109 to 111 °C
CC(C)CC(N)C(=O)N1CCNC(=O)C1 (stereo not given)	162 to 164 °C
Cc1c(C(=O)O)cnn1C1CCS(=O)(=O)C1 (stereo not given)	249 to 251 °C
Nc1ccc(Cc2nnc3ccccn23)cc1	207 to 209 °C

SMILES	melting point
Cc1noc(-c2cccnc2Cl)n1	65 to 67 °C
NCCN1C(=O)Cc2ccccc21	88 to 90 °C
NC(=O)Cc1cc(Br)c(-c2ccc(N)cc2)s1	189 to 191 °C
COc1c(N)cc(C(C)(C)C)cc1C(C)(C)C	79 to 81 °C
CC(C)(C#N)Cc1ccccc1	47 to 49 °C
Fc1ccc(-c2ccc(Cl)nn2)cc1	159 to 161 °C
O=C(O)c1ccc(SCc2ccccc2)cc1	184 to 186 °C
O=C(O)c1cnc2onc(C3CC3)c2c1	206 to 208 °C
COc1ccc(-c2noc(=O)[nH]2)cc1OC	211 to 213 °C
CCNC1CCc2[nH]c3ccc(Cl)cc3c2C1 (stereo not given)	174 to 176 °C
O=C(O)c1ccc(Cn2nnc3ccccc32)cc1	264 to 266 °C
CCCNS(=O)(=O)c1cccc(C(=O)O)c1	199 to 201 °C
O=S1(=O)CCC(c2nnc(S)o2)C1 (stereo not given)	181 to 183 °C
Cc1cc(C)c(C)c(S(N)(=O)=O)c1C	149 to 151 °C
NC(=O)c1ccc(S(N)(=O)=O)s1	214 to 216 °C
Cc1nc(NC(=O)OC(C)(C)C)sc1C(N)=O	279 to 281 °C
O=C(O)c1cc(-c2ccccc2)ns1	183 to 185 °C
O=C(CCl)N1CCN(c2ccc([N+](=O)[O-])cc2)CC1	129 to 131 °C
CCOC(=O)/C(C#N)=C\Nc1ccc(CC)cc1	97 to 99 °C
O=C(O)C1CCN(c2ccc(S(=O)(=O)N3CCCCC3)cc2[N+](=O)[O-])CC1	241 to 243 °C

Second part, the molecule after the results:

melting point	SMILES
116 to 118 °C	O=C(O)C1(c2ccc(Cl)c(Cl)c2)CCC1
70 to 72 °C	N#Cc1ccc(S(=O)(=O)Cl)c(C(F)(F)F)c1
58 to 60 °C	Cc1cc(C=O)cc(C)c1OCc1ccccc1Cl
155 to 157 °C	O=C(CCl)Nc1cc(C(F)(F)F)ccc1N1CCOCC1
63 to 74 °C	O=C(C(Cl)c1ccccc1)N1CCCCC1 (stereo not given)
286 to 288 °C	Cc1cc(C(=O)O)c2[nH]ncc2c1
70 to 72 °C	CCOC(=O)c1ccc2c(c1)nc(C)n2CC
155 to 157 °C	O=C(O)CCC(=O)N1CCN(S(=O)(=O)c2ccccc2)CC1
83 to 85 °C	ClCc1ncn(-c2ccccc2)n1
149 to 151 °C	O=C(O)C(Cc1ccccc1)NC(=O)C(c1ccccc1)c1ccccc1 (stereo not given)
142 to 144 °C	Clc1cc(Cl)nc(-c2ccccn2)n1
59 to 61 °C	COc1cc(C(C)=O)cc(O)c1OC
315 to 317 °C	O=C(O)c1ccc(-c2ccncc2)[nH]c1=O
87 to 90 °C	Cc1nc(CSc2ccc(C(=O)O)cc2)cs1
98 to 100 °C	N#CCOc1ccc(CO)cc1
121 to 123 °C	COc1ccc(CCC(=O)O)cc1N
75 to 77 °C	COC(=O)c1cccc(NC(=O)CC(C)=O)c1
103 to 105 °C	Oc1ccc2oc3c(c2c1)CCCC3
196 to 198 °C	CC(C)(C)c1ccc(C(=O)Nc2ccc(O)cc2)cc1
86 to 88 °C	Cn1cc(C=O)c(-c2cccnc2)n1
161 to 163 °C	CC(=O)Nc1cc(S(=O)(=O)Cl)ccc1F
260 to 262 °C	O=C(O)C=Cc1cncc2ccccc12
138 to 140 °C	O=C(O)c1ccn(-c2ccccc2)n1
178 to 180 °C	Cc1nc(S)n(C2CC2)c1C
164 to 166 °C	CC(C)c1ccc(N2Cc3ccc(N)cc3C2)cc1
195 to 197 °C	Sc1nnc(-c2ccccc2Br)[nH]1

melting point	SMILES
74 to 76 °C	ClCc1noc(C2(c3ccccc3)CCOCC2)n1
133 to 135 °C	O=S(=O)(NC1CCCNC1)c1ccccc1 (stereo not given)
203 to 205 °C	O=C(O)c1nn(-c2ccc(F)cc2F)cc1O
152 to 154 °C	CN(c1ccc(O)cc1)S(=O)(=O)c1ccc(F)cc1
178 to 180 °C	O=C(O)CS(=O)c1ccc([N+](=O)[O-])cc1 (stereo not given)
294 to 296 °C	NC(=O)Cn1ccc(=O)c2ccccc21
82 to 84 °C	O=C(CCl)/N=c1\sccn1Cc1ccccc1Cl
159 to 161 °C	COCc1nc(C)c(C(=O)O)s1
167 to 169 °C	Cc1cc(=O)n2nc(Br)sc2n1
134 to 136 °C	CC(C)(C)OC(=O)c1nnsc1N
110 to 112 °C	O=C(CCl)NCc1cnn(-c2ccccc2)c1
176 to 178 °C	Nc1ccc(S(=O)(=O)Nc2ccccc2)cc1
209 to 211 °C	COc1ccc(-c2cc(C(=O)O)[nH]n2)cc1
74 to 76 °C	O=C(O)CCCn1cccn1
106 to 108 °C	O=C(O)C(Sc1cc(F)ccc1F)c1ccccc1 (stereo not given)
205 to 207 °C	NC(=O)C1CCC(C(=O)O)CC1 (stereo not given)
79 to 81 °C	c1ccc2nn(C3CCNC3)cc2c1 (stereo not given)
167 to 169 °C	O=C(O)c1cccnc1Oc1cccc(Br)c1
281 to 283 °C	O=C1CCNc2ccc(C(=O)O)cc2N1
67 to 69 °C	CCOC(=O)c1csc(-c2ccccn2)n1
145 to 147 °C	Cc1cc(N)n(-c2cccc(Br)c2)n1
131 to 133 °C	Cn1cc(C=O)c(-c2ccncc2)n1
44 to 46 °C	OC(CCc1ccccc1)CCc1ccccc1
163 to 165 °C	NNC(=O)NCc1ccc(Cl)cc1
257 to 259 °C	NC(=O)c1cccnc1Sc1ccc(C(=O)O)cc1
87 to 89 °C	CC(NC(=O)CCl)C1CC2CCC1C2 (stereo not given)

melting point	SMILES
260 to 264 °C	Cc1nc2nc(N)nn2c(C)c1CC(=O)O
226 to 228 °C	CS(=O)(=O)c1ccc(C(N)=O)cc1
66 to 68 °C	OC(Cc1ccc(Cl)cc1)C(F)(F)F (stereo not given)
86 to 88 °C	O=[N+]([O-])c1ccc(Br)cc1F
49 to 51 °C	CNc1ccc(Br)cc1N
94 to 96 °C	Cc1ccccc1-n1c(S)nnc1-c1cccnc1
101 to 103 °C	COc1ccc(Br)c(C#N)c1
49 to 51 °C	Cc1cc(C)cc(CCC(=O)O)c1
154 to 156 °C	COC(=O)c1cnc[nH]1
266 to 268 °C	CC1CCc2c(sc3nc(CC#N)[nH]c(=O)c23)C1 (stereo not given)
114 to 116 °C	Brc1ccc(Oc2ncccn2)cc1
71 to 73 °C	O=C1CCc2c(OCc3ccccc3)cccc21
81 to 83 °C	O=Cc1ccc(Oc2ccc([N+](=O)[O-])cc2Cl)c(F)c1
197 to 199 °C	O=C(O)CC1CCCN1Cc1nc2ccccc2c(=O)[nH]1 (stereo not given)
209 to 211 °C	O=C(O)c1ccc(OCc2ccccn2)cc1
307 to 309 °C	N#CC1=C(N)N2Cc3ccccc3CC2C1=O (stereo not given)
155 to 157 °C	Cc1ccccc1-c1noc(=O)[nH]1
174 to 176 °C	Nc1ccc(-c2csc(N3CCOCC3)n2)cc1
240 to 242 °C	Cc1sc(N)nc1-c1c[nH]c2ncccc12
96 to 98 °C	O=C(O)C(Oc1ccc(F)cc1F)c1ccccc1 (stereo not given)
127 to 129 °C	Nc1ccc(-n2cncn2)c(C(F)(F)F)c1
79 to 81 °C	COC(=O)c1cc(S(=O)(=O)Cl)ccc1Cl
65 to 67 °C	O=S(=O)(Cl)c1c(Cl)ccc2ccccc12
169 to 171 °C	CC(=O)c1cccc(OCc2cc(C(=O)O)no2)c1
